Active and inactive are the calls of the source. The calls are words filed in the database; no cut-off is given here. Some results are limits rather than exact numbers.

Assay [1] concerns the target T1, Protein cereblon/Poly [ADP-ribose] polymerase 1 (Homo sapiens, UniProt P09874+Q96SW2). Put plainly: PROTAC activity at CRBN/PARP1 in human MDA-MB-231 cells assessed as induction of PARP1 degradation at 1 uM incubated for 24 hrs by western blot analysis. It is filed as cell-based.
Assay [2] deals with MDA-MB-468. Nature of the assay: Antiproliferative activity against human MDA-MB-468 cells assessed as cell growth inhibition incubated for 5 days by MTT assay. To be noted: MDA-MB-468, 120 h. It is filed as functional, cell-based. On the technique in general: Tetrazolium assays rely on reduction of a dye to a coloured formazan, in cell work by metabolically active cells.
Assay [3] relates to MDA-MB-436. Nature of the assay: Antiproliferative activity against human MDA-MB-436 cells assessed as cell growth inhibition incubated for 5 days by MTT assay. Type of assay: functional, cell-based. To be noted: MDA-MB-436, 120 h.
For assay [4], the system named is MDA-MB-231. Put plainly: Antiproliferative activity against human MDA-MB-231 cells assessed as cell growth inhibition incubated for 5 days by MTT assay. It is filed as functional, cell-based. As to conditions: MDA-MB-231, 120 h.
Assay [5] relates to CAPAN-1. Nature of the assay: Antiproliferative activity against human CAPAN-1 cells assessed as cell growth inhibition incubated for 5 days by MTT assay. As to conditions: CAPAN-1, 120 h. Type of assay: functional, cell-based.
For assay [6], the system named is MDA-MB-231. Put plainly: Induction of cell cycle arrest in human MDA-MB-231 cells assessed as accumulation at S phase at 2.5 uM incubated for 24 hrs by propidium iodide staining based flow cytometry analysis (reference value: 37.88 %). Type of assay: functional. In general terms: Flow cytometry measures light scatter and fluorescence of single cells or particles in a stream.

In assay [7] the test system is MDA-MB-231. Nature of the assay: Induction of cell cycle arrest in human MDA-MB-231 cells assessed as accumulation at S phase at 0.625 uM incubated for 24 hrs by propidium iodide staining based flow cytometry analysis (reference value: 37.88 %). It is filed as functional.
For assay [8], the system named is MDA-MB-231. Nature of the assay: Induction of cell cycle arrest in human MDA-MB-231 cells assessed as accumulation at G0/G1 phase at 0.625 uM incubated for 24 hrs by propidium iodide staining based flow cytometry analysis (reference value: 32.62 %). Type of assay: functional.
Assay [9] deals with MDA-MB-231. Put plainly: Induction of cell cycle arrest in human MDA-MB-231 cells assessed as accumulation at G0/G1 phase at 2.5 uM incubated for 24 hrs by propidium iodide staining based flow cytometry analysis (reference value: 32.62 %). It is filed as functional.
Assay [10] has as its system MDA-MB-231. Nature of the assay: Induction of cell cycle arrest in human MDA-MB-231 cells assessed as accumulation at G2/M phase at 5 uM incubated for 24 hrs by propidium iodide staining based flow cytometry analysis (reference value: 27.14 %). Type of assay: functional.
In assay [11] the test system is MDA-MB-231. Nature of the assay: Induction of cell cycle arrest in human MDA-MB-231 cells assessed as accumulation at G2/M phase at 0.625 uM incubated for 24 hrs by propidium iodide staining based flow cytometry analysis (reference value: 27.14 %). It is filed as functional.
Assay [12] has as its system MDA-MB-231. Nature of the assay: Induction of cell cycle arrest in human MDA-MB-231 cells assessed as accumulation at G0/G1 phase at 0.312 uM incubated for 24 hrs by propidium iodide staining based flow cytometry analysis (reference value: 32.62 %). Type of assay: functional.
Assay [13] deals with MDA-MB-231. Nature of the assay: Induction of cell cycle arrest in human MDA-MB-231 cells assessed as accumulation at G2/M phase at 2.5 uM incubated for 24 hrs by propidium iodide staining based flow cytometry analysis (reference value: 27.14 %). It is filed as functional.
Assay [14] concerns MDA-MB-231. Put plainly: Induction of cell cycle arrest in human MDA-MB-231 cells assessed as accumulation at G0/G1 phase at 5 uM incubated for 24 hrs by propidium iodide staining based flow cytometry analysis (reference value: 32.62 %). Type of assay: functional.
Assay [15] concerns MDA-MB-231. Nature of the assay: Induction of cell cycle arrest in human MDA-MB-231 cells assessed as accumulation at G2/M phase at 0.312 uM incubated for 24 hrs by propidium iodide staining based flow cytometry analysis (reference value: 27.14 %). It is filed as functional.
In assay [16] the test system is MDA-MB-231. Nature of the assay: Induction of cell cycle arrest in human MDA-MB-231 cells assessed as accumulation at S phase at 1.25 uM incubated for 24 hrs by propidium iodide staining based flow cytometry analysis (reference value: 37.88 %). Type of assay: functional.
Assay [17] deals with MDA-MB-231. Nature of the assay: Induction of cell cycle arrest in human MDA-MB-231 cells assessed as accumulation at G2/M phase at 1.25 uM incubated for 24 hrs by propidium iodide staining based flow cytometry analysis (reference value: 27.14 %). It is filed as functional.
In assay [18] the test system is MDA-MB-231. Put plainly: Induction of cell cycle arrest in human MDA-MB-231 cells assessed as accumulation at S phase at 5 uM incubated for 24 hrs by propidium iodide staining based flow cytometry analysis (reference value: 37.88 %). Type of assay: functional.
Assay [19] relates to MDA-MB-231. Put plainly: Induction of cell cycle arrest in human MDA-MB-231 cells assessed as accumulation at S phase at 0.312 uM incubated for 24 hrs by propidium iodide staining based flow cytometry analysis (reference value: 37.88 %). Type of assay: functional.
Assay [20] has as its system MDA-MB-231. Put plainly: Induction of cell cycle arrest in human MDA-MB-231 cells assessed as accumulation at G0/G1 phase at 1.25 uM incubated for 24 hrs by propidium iodide staining based flow cytometry analysis (reference value: 32.62 %). Type of assay: functional.
In assay [21] the target is T1, Protein cereblon/Poly [ADP-ribose] polymerase 1. Put plainly: PROTAC activity at CRBN/PARP1 in human MDA-MB-231 cells assessed as induction of PARP1 degradation at 0.12 to 4 uM incubated for 24 hrs by western blot analysis. As to conditions: dose 0.12-4 µM, DDE = dose-dependent effect. It is filed as cell-based. A general note: A western blot detects proteins with antibodies after separation by electrophoresis.

T1 sequence (P09874 2-1014 limits assumed): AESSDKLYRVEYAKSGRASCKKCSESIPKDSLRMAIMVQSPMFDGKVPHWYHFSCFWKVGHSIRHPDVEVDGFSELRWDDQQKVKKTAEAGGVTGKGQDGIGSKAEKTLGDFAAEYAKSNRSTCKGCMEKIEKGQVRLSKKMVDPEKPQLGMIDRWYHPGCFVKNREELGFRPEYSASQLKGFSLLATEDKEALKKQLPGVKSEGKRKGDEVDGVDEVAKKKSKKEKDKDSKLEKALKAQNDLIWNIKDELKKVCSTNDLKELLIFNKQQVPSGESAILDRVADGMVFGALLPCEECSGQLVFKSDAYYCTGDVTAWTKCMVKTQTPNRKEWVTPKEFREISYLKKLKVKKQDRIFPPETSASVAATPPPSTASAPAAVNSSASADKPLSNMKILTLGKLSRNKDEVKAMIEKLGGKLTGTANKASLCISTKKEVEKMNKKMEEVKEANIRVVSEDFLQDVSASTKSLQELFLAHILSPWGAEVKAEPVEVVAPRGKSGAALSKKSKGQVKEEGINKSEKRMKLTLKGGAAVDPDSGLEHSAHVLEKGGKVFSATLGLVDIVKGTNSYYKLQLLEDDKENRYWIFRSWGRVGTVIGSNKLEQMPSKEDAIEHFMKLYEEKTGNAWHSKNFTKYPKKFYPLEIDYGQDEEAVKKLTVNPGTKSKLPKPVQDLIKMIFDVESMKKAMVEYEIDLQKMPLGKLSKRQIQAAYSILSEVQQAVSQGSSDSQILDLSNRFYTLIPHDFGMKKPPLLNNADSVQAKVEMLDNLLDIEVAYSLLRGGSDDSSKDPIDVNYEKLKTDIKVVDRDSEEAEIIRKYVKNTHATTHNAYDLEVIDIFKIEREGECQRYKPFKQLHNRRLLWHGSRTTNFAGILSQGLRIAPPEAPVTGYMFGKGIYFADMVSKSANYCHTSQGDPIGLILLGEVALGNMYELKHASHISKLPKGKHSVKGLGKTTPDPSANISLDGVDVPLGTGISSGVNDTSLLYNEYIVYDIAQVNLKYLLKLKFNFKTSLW
T1 sequence (Q96SW2 whole entry partner): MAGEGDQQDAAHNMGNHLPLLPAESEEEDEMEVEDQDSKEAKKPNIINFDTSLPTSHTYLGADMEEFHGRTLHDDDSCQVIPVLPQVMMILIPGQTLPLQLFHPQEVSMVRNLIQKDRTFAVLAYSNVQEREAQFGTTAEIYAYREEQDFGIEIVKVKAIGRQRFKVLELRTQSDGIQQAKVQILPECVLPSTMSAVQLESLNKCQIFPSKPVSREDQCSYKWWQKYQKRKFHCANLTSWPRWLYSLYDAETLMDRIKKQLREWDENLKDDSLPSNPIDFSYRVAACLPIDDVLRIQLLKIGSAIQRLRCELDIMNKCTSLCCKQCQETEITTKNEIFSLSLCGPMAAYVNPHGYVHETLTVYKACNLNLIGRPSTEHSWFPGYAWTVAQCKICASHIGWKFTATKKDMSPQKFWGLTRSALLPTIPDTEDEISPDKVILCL

For the compound `O=C1CCC(N2C(=O)c3cccc(NC(=O)CNCCCCCCCC(=O)N4CCN(C(=O)c5cc(Cc6n[nH]c(=O)c7ccccc67)ccc5F)CC4)c3C2=O)C(=O)N1` (centres undefined), in assay [1], the outcome was Active. Further, the IC50 in assay [2] turned out to be 7.75 µM; in [3], 0.29 µM; in [4] it was 10.6 µM; in assay [5], 0.65 µM.
Take `O=C1CCC(N2C(=O)c3cccc(NC(=O)CNCCCCCC(=O)N4CCN(C(=O)c5cc(Cc6n[nH]c(=O)c7ccccc67)ccc5F)CC4)c3C2=O)C(=O)N1` (centres undefined): the IC50 is greater than 20 µM in [2], 4.28 µM in assay [3], greater than 20 µM in [4] and 4.95 µM in assay [5].
Regarding `O=C1CCC(N2C(=O)c3cccc(NC(=O)CNCC(=O)N4CCN(C(=O)c5cc(Cc6n[nH]c(=O)c7ccccc67)ccc5F)CC4)c3C2=O)C(=O)N1` (centres undefined), the IC50 in assay [2] was greater than 20 µM; in [3], greater than 10 µM; in assay [4], greater than 20 µM; in assay [5], greater than 10 µM.
Regarding `O=C(c1cc(Cc2n[nH]c(=O)c3ccccc23)ccc1F)N1CCN(C(=O)C2CC2)CC1` [OLAPARIB], the Activity is 38.31% in assay [6]; 33.33% in [7]; 33.68% in assay [8]; 28.07% in assay [9]; 39.58% in [10]; 31.86% in assay [11]. Besides, the Activity is 35.88% in assay [12]; 37.91% in [13]; 23.6% in assay [14]; 26.17% in assay [15]; 33.8% in assay [16]; 34.71% in assay [17]. For the same compound, the Activity in [18] is listed as 37.59%; in [19], 46.21%; in assay [20], 29.71%. Also, the values for the IC50 in [2], in assay [3] and in assay [5] were 4.19 µM, 0.02 µM and 0.053 µM, respectively.
As to `CN1C(=O)CCC(N2C(=O)c3cccc(NC(=O)CNCCCCCCCCCCC(=O)N4CCN(C(=O)c5cc(Cc6n[nH]c(=O)c7ccccc67)ccc5F)CC4)c3C2=O)C1=O` (centres undefined), the IC50 in assay [2] amounted to 4.07 µM; in assay [3], 0.053 µM; in assay [4], 4.58 µM; in assay [5] it was 0.16 µM. In assay [21], the Activity entry is “Dde”.
`O=C1CCC(N2C(=O)c3cccc(NC(=O)CNCCC(=O)N4CCN(C(=O)c5cc(Cc6n[nH]c(=O)c7ccccc67)ccc5F)CC4)c3C2=O)C(=O)N1` (centres undefined): the IC50 in assay [2] is greater than 20 µM; in assay [3] it was greater than 10 µM; in assay [4], greater than 20 µM; in [5], greater than 10 µM.
`O=C1CCC(N2C(=O)c3cccc(NC(=O)CNCCCCC(=O)N4CCN(C(=O)c5cc(Cc6n[nH]c(=O)c7ccccc67)ccc5F)CC4)c3C2=O)C(=O)N1` (centres undefined): the IC50 in assay [2] is greater than 20 µM; in assay [3], 5.82 µM; in assay [4], greater than 20 µM; in assay [5], 6.53 µM.

A word on the IC50: it is the concentration that gives 50% inhibition.

(Values after ChEMBL document CHEMBL5113469, “Synthesis and biological evaluation of a tumor-selective degrader of PARP1” (Bioorg Med Chem, 2022).)
